This is an account of results in patent US12679878B2, “CRF2 receptor agonists and their use in therapy” (SANOFI, priority 2020, dated 2026).

Series [1] is described as follows: Solubility in buffer systems by UPLC-UV (Example 13). Type of series: physicochemical. The settings on record: pH 4.5, Solubility in Buffer B [mg/ml]. The procedure: Prior to performing the solubility measurements, the purity of the compounds was determined through UPLC/MS. […] Therefore, solutions from solid samples were prepared in a buffer system with a concentration of 10 mg/mL compound based on the previously determined % purity.
UPLC-UV was performed after 1 hour of gentle agitation from the supernatant, which was obtained after 15 minutes of centrifugation at 2500 RCF (relative centrifugal acceleration). The solubility was determined by the comparison of the UV peak area of a 2 μL-injection of a buffered sample diluted 1:10 with a standard curve of a reference compound with known concentration. The different UV extinction coefficients of sample and reference compound were calculated based on the different amino acid sequences and considered in the concentration calculation.

Another series addresses T1, human CRF2α receptor (Homo sapiens, UniProt Q13324).
T1 construct: expressed in transfected cells; host or cells: TeloHEAC
T1 sequence (Q13324 1-411): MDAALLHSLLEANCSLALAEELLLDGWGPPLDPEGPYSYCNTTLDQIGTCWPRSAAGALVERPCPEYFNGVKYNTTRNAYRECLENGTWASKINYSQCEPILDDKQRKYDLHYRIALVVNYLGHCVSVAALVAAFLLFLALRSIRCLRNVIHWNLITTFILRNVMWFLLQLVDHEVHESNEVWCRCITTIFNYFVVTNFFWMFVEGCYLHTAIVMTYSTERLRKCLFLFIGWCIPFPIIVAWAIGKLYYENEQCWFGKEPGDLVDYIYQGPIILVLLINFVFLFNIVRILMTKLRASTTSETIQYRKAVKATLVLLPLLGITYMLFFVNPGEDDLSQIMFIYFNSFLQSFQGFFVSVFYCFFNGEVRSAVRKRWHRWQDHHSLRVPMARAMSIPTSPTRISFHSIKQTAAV
Nature of the series: cAMP agonism at human CRF2 α receptor in TeloHEAC cells (Example 7). Type of series: cell-based. The settings on record: cAMP HTRF, TeloHEAC cells stably expressing human CRF2 α. The method, boiled down: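 Thawed frozen stably transfected cells in HBSS/20 mM HEPES (0% or 0.1% HSA) plus 2 mM IBMX were exposed to compound at 2000 cells/well for 30 min at room temperature. Intracellular cAMP was read by HTRF (665/620 nm ratio) after 1 h lysis; EC50 was derived with 1000 nM urocortin 2 set as 100%.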
For orientation: Time-resolved FRET reads energy transfer from a long-lived donor to a nearby acceptor.

Setting [2] is: 0% HSA, read-out: EC50 [nM], 0% HSA.

Molecules are shown by their SMILES. Where two headings read alike, the source gives them in different places. Starred links: 1 amine or outer side, 2 acyl side, 3 side chain; linkers in the order of their positions; H or OH if unused. Residues, ends and D or L forms follow the SMILES beside them. Groups on a side chain read outwards from the residue. *: point of attachment. γGlu = O=C(O)[C@H](CCC(=O)[*:2])N[*:1]; Palmitoyl = CCCCCCCCCCCCCCCC(=O)*

In series [1], `CCCCCCCCCCCCCCCC(=O)N[C@@H](CCC(=O)NCCCC[C@H](NC(=O)[C@H](CC(C)C)NC(=O)[C@H](CCCCN)NC(=O)[C@@H](NC(=O)[C@@H]1CCCN1C(=O)[C@@H](NC(=O)[C@H](CC(=O)O)NC(=O)[C@H](CC(C)C)NC(=O)[C@H](CO)NC(=O)[C@H](CC(C)C)NC(=O)[C@@H](NC(=O)[C@@H](N)[C@@H](C)CC)C(C)C)C(C)C)[C@@H](C)CC)C(=O)N[C@@H](CCCCN)C(=O)N[C@H](C(=O)N[C@@H](CC(C)C)C(=O)N[C@@H](CC(C)C)C(=O)N[C@@H](CCC(=O)O)C(=O)N[C@@H](CCC(N)=O)C(=O)N[C@@H](CCC(=O)O)C(=O)N[C@@H](CCCCN)C(=O)N[C@@H](CCC(N)=O)C(=O)N[C@@H](CCC(=O)O)C(=O)N[C@@H](CCCCN)C(=O)N[C@@H](CCC(=O)O)C(=O)N[C@@H](CCCCN)C(=O)N[C@@H](CCC(N)=O)C(=O)N[C@@H](CCC(N)=O)C(=O)N[C@@H](C)C(=O)N[C@@H](CCC(=O)O)C(=O)N[C@H](C(=O)N[C@@H](CC(N)=O)C(=O)N[C@@H](C)C(=O)N[C@@H](CCC(N)=O)C(=O)N[C@H](C(=O)N[C@@H](CC(C)C)C(=O)N[C@@H](C)C(=O)N[C@@H](CCC(N)=O)C(=O)N[C@H](C(N)=O)C(C)C)[C@@H](C)CC)[C@@H](C)O)[C@@H](C)CC)C(=O)O` [compound 2] (H-IVLSLDVPIKLK([γGlu-Palmitoyl])KILLEQEKQEKEKQQAETNAQILAQV-NH2; N-terminus assumed) returned a solubility at 1 h greater than 7600 µg/mL. The EC50 came to 0.01 nM at human CRF2α receptor (setting [2]) and 0.01 nM on human CRF2α receptor (0.1% HSA, read-out: EC50 [nM], 0.1% HSA).
Consider `CCCCCCCCCCCCCCCC(=O)N[C@@H](CCC(=O)NCCCC[C@H](NC(=O)[C@H](CC(C)C)NC(=O)[C@H](CCCCN)NC(=O)[C@@H](NC(=O)[C@@H]1CCCN1C(=O)[C@@H](NC(=O)[C@H](CC(=O)O)NC(=O)[C@H](CC(C)C)NC(=O)[C@H](CO)NC(=O)[C@H](CC(C)C)NC(=O)[C@@H](NC(=O)[C@@H](N)[C@@H](C)CC)C(C)C)C(C)C)[C@@H](C)CC)C(=O)N[C@@H](CCCCN)C(=O)N[C@H](C(=O)N[C@@H](CC(C)C)C(=O)N[C@@H](CC(C)C)C(=O)N[C@@H](CCC(=O)O)C(=O)N[C@@H](CCC(N)=O)C(=O)N[C@@H](CCC(=O)O)C(=O)N[C@@H](CCCCN)C(=O)N[C@@H](CCC(N)=O)C(=O)N[C@@H](CCC(=O)O)C(=O)N[C@@H](CCCCN)C(=O)N[C@@H](CCC(=O)O)C(=O)N[C@@H](CCCCN)C(=O)N[C@@H](CCC(N)=O)C(=O)N[C@@H](CCC(N)=O)C(=O)N[C@@H](C)C(=O)N[C@@H](CCC(=O)O)C(=O)N[C@@H](CCCCN)C(=O)N[C@@H](CC(N)=O)C(=O)N[C@@H](C)C(=O)N[C@@H](CCC(N)=O)C(=O)N[C@H](C(=O)N[C@@H](CC(C)C)C(=O)N[C@@H](C)C(=O)N[C@@H](CCC(N)=O)C(=O)N[C@H](C(N)=O)C(C)C)[C@@H](C)CC)[C@@H](C)CC)C(=O)O` [compound 3] (H-IVLSLDVPIKLK([γGlu-Palmitoyl])KILLEQEKQEKEKQQAEKNAQILAQV-NH2), for which the solubility at 1 h in series [1] was greater than 8800 µg/mL. The EC50 on human CRF2α receptor (setting [2]) was found to be 0.01 nM.

The solubility is how much of the substance goes into solution per volume. Usually EC50 stands for the concentration needed to bring the measured effect to its halfway point.
